Results as given in PMC10683028 (Journal of Medicinal Chemistry, 2023).
Converted amounts (≈) assume the structure as drawn.

Experiments:
[1] = pH 7.4
Protocol: Test compounds were prepared as 0.5 mM solutions in 50:50 acetonitrile:water and analyzed by reversed-phase HPLC-UV (wavelength 254 nm) using a Phenomenex Luna C18 100 Å 150 × 4.6 mm 5 μm column with a gradient of aqueous phase (50 mM ammonium acetate, pH 7.4) and mobile phase (acetonitrile) as described.[41],[42]

physchem = settings: aqueous medium at pH 7.4, pH 7.4
Protocol: (§1) In vitro ADME experiments were performed exactly as reported.[38]−[40]

in vitro = settings: PAMPA, pH 7.4
Protocol: as §1

SMILES | CHI-logDpH7.4 [1] | solubility (physchem) [µM] | Papp (in vitro) [×10⁻⁶ cm/s]
COc1ccc(-c2noc(C(=O)NCCc3ccc(C(=O)N4CC5(COC5)C4)cc3)n2)cc1OC [compound 18, N-(4-(2-Oxa-6-azaspiro[3.3]heptane-6-carbonyl)phenethyl)-3-(3,4-dimethoxyphenyl)-1,2,4-oxadiazole-5-carboxamide] | 1.8 | 12 (≈ 5.74 µg/mL) | 2.6
COc1ccc(-c2noc(C(=O)NC(C#N)Cc3ccc(C(=O)N4CC(OC)C4)cc3)n2)cc1OC (stereo not drawn) [compound 34, N-(1-Cyano-2-(4-(3-methoxyazetidine-1-carbonyl)phenyl)ethyl)-3-(3,4-dimethoxyphenyl)-1,2,4-oxadiazole-5-carboxamide] | 2.2 | 164 (≈ 80.6 µg/mL) | 1.5
COc1ccc(-c2noc(C(=O)NCCc3ccc(C(=O)N4CC(OC)C4)cc3)n2)cc1OCC1CC1 [compound 77, 3-[3-(Cyclopropylmethoxy)-4-methoxyphenyl]-N-[2-[4-(3-methoxyazetidine-1-carbonyl)phenyl]ethyl]-1,2,4-oxadiazole-5-carboxamide] | 2.9 | 2 (≈ 1.01 µg/mL) | 3.6
COc1ccc(-c2nnc(C(=O)NCCc3ccc(C(=O)N4CC(OC)C4)cc3)o2)cc1OC [compound 104, 5-(3,4-Dimethoxyphenyl)-N-(4-(3-methoxyazetidine-1-carbonyl)phenethyl)-1,3,4-oxadiazole-2-carboxamide] | 1.7 | 11 (≈ 5.13 µg/mL) | 0.8
